In the assay the test system is C57BL/6 mice, Adenocarcinoma 755 sc, tumor weight T/C. The assay can be described thus: NCI In Vivo Anticancer Drug Screen. Data for tumor model Adenocarcinoma 755 (subcutaneous) in C57BL/6 mice. Conditions: endpoint: mean tumor weight, higher = larger tumour. On the procedure:
The antitumor activity of compounds was measured in mice bearing transplantable tumors. Survival or tumor size were measured and the results are expressed as the measurement made in the treated group (T) divided by the measurement made in the vehicle treated control group (C). The tumor model used in this assay is Adenocarcinoma 755 (subcutaneous) in C57BL/6 mice

Setting [1] is: dose: 75.0 mg/kg/injection, schedule: Q01DX011 (ip), vehicle: carboxymethylcellulose (CMC).
Setting [2] is: dose: 40.0 mg/kg/injection, schedule: Q01DX011 (ip), vehicle: saline.

For 18 compounds, T/C results are on record in PubChem BioAssay AID218 (DTP/NCI, 2004).

The structures appear in SMILES notation. Where “and” joins values, the source holds several entries; their conditions need not be identical. Equal entries are not always repeated.

For `Cn1ncc2c(N)ncnc21`, the T/C reads like this: (dose: 20.0 mg/kg/injection, schedule: Q02DX006 (ip), vehicle: other) 47 % of control; (dose: 40.0 mg/kg/injection, schedule: Q02DX006 (ip), vehicle: other) 28 % of control.

Regarding `CCOC(=O)n1cnc2ncnc(N)c21`, the T/C runs as follows: (dose: 25.0 mg/kg/injection, schedule: Q01DX011 (ip), vehicle: carboxymethylcellulose (CMC)) 56 % of control; under setting [1], 104 % of control.

As to `O=C([O][Hg][CH2]C1COC([CH2][Hg][O]C(=O)c2ccccc2)CO1)c1ccccc1` (stereo not given), the T/C is 82 % of control (dose: 16.0 mg/kg/injection, schedule: Q01DX009 (ip), vehicle: saline); 77 % of control (dose: 32.0 mg/kg/injection, schedule: Q01DX009 (ip), vehicle: saline); 48 % of control (dose: 32.0 mg/kg/injection, schedule: Q01DX010 (ip), vehicle: saline).

As to `c1ccc(CNc2ncnc3[nH]ncc23)cc1`, the T/C reads like this: (dose: 25.0 mg/kg/injection, schedule: Q01DX011 (ip), vehicle: saline) 27 % of control; (dose: 30.0 mg/kg/injection, schedule: Q01DX011 (ip), vehicle: saline) 25 % of control; under setting [2], 4 % of control.

Regarding `CCN(CC)c1ncnc2[nH]ncc12`, the T/C is, setting by setting: under setting [2], 25 % of control; (dose: 50.0 mg/kg/injection, schedule: Q01DX011 (ip), vehicle: saline) 23 % of control.

For `Cn1cnc2ncnc(Cl)c21`, the T/C under setting [1] was 183 % of control.

As to `C1CN1c1nc(N2CC2)nc(N2CC2)n1`, the T/C (dose: 0.1 mg/kg/injection, schedule: Q01DX011 (ip), vehicle: saline) was 28 % of control; the T/C (dose: 0.11 mg/kg/injection, schedule: Q01DX011 (ip), vehicle: saline) was 44 % of control; the T/C (dose: 0.13 mg/kg/injection, schedule: Q01DX011 (ip), vehicle: saline) is 61 % of control; the T/C (dose: 0.15 mg/kg/injection, schedule: Q01DX011 (ip), vehicle: saline) was 21 % of control; the T/C (dose: 0.2 mg/kg/injection, schedule: Q01DX011 (ip), vehicle: saline) is 12 % of control; the T/C (dose: 0.25 mg/kg/injection, schedule: Q02DX006 (ip), vehicle: saline) was 80 % of control. The T/C (dose: 0.3 mg/kg/injection, schedule: Q01DX011 (ip), vehicle: saline) is 5 % of control; the T/C (dose: 0.5 mg/kg/injection, schedule: Q01DX011 (ip), vehicle: saline) was 19 % of control; the T/C (dose: 0.5 mg/kg/injection, schedule: Q02DX006 (ip), vehicle: saline) is 121 % of control.

On to `C=CC(CN1CC1)OC(C)=O` (stereo not given), for which the T/C was 63 % of control (dose: 1.0 mg/kg/injection, schedule: Q01DX011 (oral), vehicle: saline); 92 % of control (dose: 1.0 mg/kg/injection, schedule: Q#A X022 (ip), vehicle: saline); 66 % of control (dose: 2.0 mg/kg/injection, schedule: Q01DX011 (ip), vehicle: saline); 49 % of control (dose: 2.0 mg/kg/injection, schedule: Q01DX011 (oral), vehicle: saline); 43 % of control (dose: 2.0 mg/kg/injection, schedule: Q#A X022 (ip), vehicle: saline); 38 % of control (dose: 3.25 mg/kg/injection, schedule: Q01DX011 (oral), vehicle: saline). The T/C by setting is: (dose: 4.0 mg/kg/injection, schedule: Q01DX011 (ip), vehicle: saline) 38 % of control; (dose: 4.0 mg/kg/injection, schedule: Q01DX011 (oral), vehicle: saline) 26 % of control; (dose: 4.0 mg/kg/injection, schedule: Q01DX011 (sc), vehicle: saline) 14 % of control; (dose: 6.0 mg/kg/injection, schedule: Q03DX004 (ip), vehicle: saline) 88 % of control; (dose: 7.5 mg/kg/injection, schedule: Q01DX011 (oral), vehicle: saline) 15 % of control; (dose: 8.0 mg/kg/injection, schedule: Q01DX011 (ip), vehicle: saline) 17 % of control. Also, the T/C was 21 % of control (dose: 8.0 mg/kg/injection, schedule: Q01DX011 (oral), vehicle: saline); 8 % of control (dose: 8.0 mg/kg/injection, schedule: Q01DX011 (sc), vehicle: saline); 59 % of control (dose: 12.0 mg/kg/injection, schedule: Q03DX004 (ip), vehicle: saline); 5 % of control (dose: 16.0 mg/kg/injection, schedule: Q01DX011 (oral), vehicle: saline); 11 % of control (dose: 24.0 mg/kg/injection, schedule: Q03DX004 (ip), vehicle: saline).

For the compound `Nc1c(Br)cc2c(c1Br)Cc1cc([N+](=O)[O-])ccc1-2`, the T/C is, setting by setting: (dose: 31.3 mg/kg/injection, schedule: Q01DX011 (ip), vehicle: saline) 17 % of control; (dose: 125.0 mg/kg/injection, schedule: Q01DX011 (ip), vehicle: saline) 17 % of control.

For `N/C(=N/N=C/c1ccccc1[N+](=O)[O-])N[N+](=O)[O-]`, the T/C was 95 % of control (dose: 150.0 mg/kg/injection, schedule: Q02DX006 (ip), vehicle: saline) and 76 % of control (dose: 200.0 mg/kg/injection, schedule: Q02DX006 (ip), vehicle: saline).

Take `N=C(N)CCNC(=O)C1CCC(N)=N1` (stereo not given): the T/C was 59 % of control (dose: 4.0 mg/kg/injection, schedule: Q02DX006 (ip), vehicle: saline); 29 % of control and 53 % of control (dose: 6.0 mg/kg/injection, schedule: Q02DX006 (ip), vehicle: saline); 44 % of control (dose: 10.0 mg/kg/injection, schedule: Q02DX006 (ip), vehicle: saline).

For `CC(C)Sc1nc(N)nc2nc[nH]c12`, the T/C (dose: 100.0 mg/kg/injection, schedule: Q01DX011 (ip), vehicle: saline) is 7 % of control.

As for `OCC1OC(n2cnc3c(=S)nc[nH]c32)C(O)C1O` (stereo not given), the T/C (dose: 0.5 mg/kg/injection, schedule: Q01DX011 (ip), vehicle: carboxymethylcellulose (CMC)) was 29 % of control; the T/C (dose: 1.25 mg/kg/injection, schedule: Q01DX011 (ip), vehicle: carboxymethylcellulose (CMC)) is 13 % of control; the T/C (dose: 2.5 mg/kg/injection, schedule: Q01DX011 (ip), vehicle: carboxymethylcellulose (CMC)) is 3 % of control; the T/C (dose: 34.0 mg/kg/injection, schedule: Q01DX011 (ip), vehicle: saline) is 2 % of control; the T/C (dose: 320.0 mg/kg/injection, schedule: Q01DX001 (oral), vehicle: alkali diluted with saline) was 10 % of control; the T/C (dose: 320.0 mg/kg/injection, schedule: Q03DX004 (oral), vehicle: alkali diluted with saline) was 2 % of control. In addition, the T/C reads like this: (dose: 320.0 mg/kg/injection, schedule: Q07DX002 (oral), vehicle: alkali diluted with saline) 5 % of control; (dose: 480.0 mg/kg/injection, schedule: Q01DX001 (oral), vehicle: alkali diluted with saline) 12 % of control; (dose: 480.0 mg/kg/injection, schedule: Q03DX004 (oral), vehicle: alkali diluted with saline) 6 % of control; (dose: 480.0 mg/kg/injection, schedule: Q07DX002 (oral), vehicle: alkali diluted with saline) 5 % of control; (dose: 640.0 mg/kg/injection, schedule: Q01DX001 (oral), vehicle: alkali diluted with saline) 68 % of control; (dose: 640.0 mg/kg/injection, schedule: Q03DX004 (oral), vehicle: alkali diluted with saline) 1 % of control. Further, under “dose: 640.0 mg/kg/injection, schedule: Q07DX002 (oral), vehicle: alkali diluted with saline”, the T/C is 32 % of control.

As for `Clc1ccc(N2CCN(CCCN3CCN(c4cccc(Cl)c4)CC3)CC2)cc1`, the T/C reads like this: (dose: 7.5 mg/kg/injection, schedule: Q01DX011 (ip), vehicle: carboxymethylcellulose (CMC)) 43 % of control; (dose: 15.0 mg/kg/injection, schedule: Q01DX011 (ip), vehicle: carboxymethylcellulose (CMC)) 38 % of control; (dose: 30.0 mg/kg/injection, schedule: Q01DX011 (ip), vehicle: carboxymethylcellulose (CMC)) 54 % of control.

For `O=C(O)CCCCC1NC(=O)CS1` (stereo not given), the T/C was 91 % of control (dose: 225.0 mg/kg/injection, schedule: Q02DX006 (ip), vehicle: water) and 101 % of control (dose: 275.0 mg/kg/injection, schedule: Q02DX006 (ip), vehicle: water).

For the compound `O=c1[nH]cc(F)c(=O)[nH]1`, the T/C by setting is: (dose: 10.0 mg/kg/injection, schedule: Q01DX011 (ip), vehicle: carboxymethylcellulose (CMC)) 7 % of control; (dose: 20.0 mg/kg/injection, schedule: Q01DX011 (ip), vehicle: carboxymethylcellulose (CMC)) 61 % of control.

On to `CCOC(C)C(/C=N/NC(N)=S)=NNC(N)=S` (stereo not given), for which the T/C (dose: 120.0 mg/kg/injection, schedule: Q01DX011 (ip), vehicle: saline) is 59 % of control.

`S=c1nc[nH]c2n[nH]nc12`: the T/C was 70 % of control (dose: 30.0 mg/kg/injection, schedule: Q02DX006 (ip), vehicle: other) and 14 % of control (dose: 75.0 mg/kg/injection, schedule: Q02DX006 (ip), vehicle: other).

One may read the T/C as the result in the treated group divided by that in the control group, in per cent.
